Assays:
Assay type in all cases: in vivo
barnyard grass (Ec) [1] = assay: Test Example 5: selectivity for a crop plant by soil treatment in upland field; design: scale not given here; details: dose 25 gai/10a, 21st day after treatment, index per Table 44
Procedure: (§1) In a 80 cm^2 plastic pot, upland soil was filled, and seeds of barnyard grass (Ec), green foxtail (Se), soybean (G1), wheat (Tr) and corn (Ze) were sown and covered with soil. A wettable powder prepared in accordance with Formulation Example 1 was diluted with water and uniformly applied to the soil surface by a small size spray at a rate of 100 l per 10 ares so that the dose of the active ingredient would be 25 g per 10 ares. Thereafter, cultivation was carried out in a green house, and on the 21st day after the treatment, the herbicidal effects were examined in accordance with the standards of Table 44.

corn (Ze) = assay: as above; design: scale not given here; details: dose 25 gai/10a, 21st day after treatment, index per Table 44
Procedure: as §1

wheat (Tr) = assay: as above; design: scale not given here; details: dose 25 gai/10a, 21st day after treatment, index per Table 44
Procedure: as §1

barnyard grass (Ec) [2] = assay: Test Example 2: herbicidal effects by upland soil treatment; design: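 0-5 growth inhibition grade; 5 = over 90%; 4 = 70-90%; 3 = 50-70%; 2 = 30-50%; 1 = 10-30%; 0 = under 10%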; details: dose 100 g active ingredient per 10 ares, examined on the 21st day after treatment, standards of Table 44
How it was run: (§2)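 Pre-emergence test: barnyard grass and green foxtail sown in upland soil, then soil surface sprayed with wettable-powder formulation at 100 g active ingredient per 10 ares (100 l per 10 ares). Grown in greenhouse; herbicidal effect scored on a rating scale 21 days after treatment.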

monochoria (Mo) [3] = assay: Test Example 1: herbicidal effects by flooded paddy field treatment; design: herbicidal effects, Mo (monochoria):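 0-5 growth inhibition grade; 5 = over 90%; 4 = 70-90%; 3 = 50-70%; 2 = 30-50%; 1 = 10-30%; 0 = under 10%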; details: for Herbicidal effect index, Mo: dose 100 gai/10a, examined on 21st day after treatment, index 0-5 per Table 44; for herbicidal effects, Mo (monochoria): dose 100 g active ingredient per 10 ares, examined on the 21st day after treatment, standards of Table 44;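 as to Herbicidal effect index, Mo: 0-5 growth inhibition grade; 5 = over 90%; 4 = 70-90%; 3 = 50-70%; 2 = 30-50%; 1 = 10-30%; 0 = under 10%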
How it was run: (§3)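 Puddled paddy soil in pots, seeds sown, 3 cm flood. Day after sowing: wettable powder diluted in water, applied dropwise to water surface, 100 g a.i./10 ares. Greenhouse; visual herbicidal rating at day 21 post-treatment.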

barnyard grass (Eo) [4] = assay: as above; design: herbicidal effects, Eo (barnyard grass):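 0-5 growth inhibition grade; 5 = over 90%; 4 = 70-90%; 3 = 50-70%; 2 = 30-50%; 1 = 10-30%; 0 = under 10%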; details: for Herbicidal effect index, Eo: dose 100 gai/10a, examined on 21st day after treatment, index 0-5 per Table 44; for herbicidal effects, Eo (barnyard grass): dose 100 g active ingredient per 10 ares, examined on the 21st day after treatment, standards of Table 44
How it was run: as §3

green foxtail (Se) = assay: Test Example 2: herbicidal effects by upland soil treatment; details: dose 100 g active ingredient per 10 ares, examined on the 21st day after treatment, standards of Table 44;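 also: 0-5 growth inhibition grade; 5 = over 90%; 4 = 70-90%; 3 = 50-70%; 2 = 30-50%; 1 = 10-30%; 0 = under 10%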
How it was run: as §2

monochoria (Mo) [5] = assay: Test Example 4: selectivity for a crop plant by flooded paddy field treatment; design: scale not given here; details: for Mo (herbicidal effects, index): dose 25 g active ingredient per 10 ares, examined on the 21st day after treatment; for Mo (herbicidal effect index): monochoria, dose 25 gai/10a, 21st day after treatment, index per Table 44
How it was run: (§4)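 Flooded paddy pots, 3 cm water; weeds sown from seed, rice transplanted at 2nd-leaf stage. Day after: wettable powder diluted in water, applied dropwise to water surface, 25 g a.i./10 a. Greenhouse; herbicidal effect rated at day 21.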

rice (Or) = assay: as above; design: scale not given here; details: rice transplanted at second leaf stage; for Or (effect on crop plant rice, index): dose 25 g active ingredient per 10 ares, examined on the 21st day after treatment; for Or (herbicidal effect index on crop): dose 25 gai/10a, 21st day after treatment, index per Table 44
How it was run: as §4

barnyard grass (Eo) [6] = assay: as above; design: scale not given here; details: for Eo (herbicidal effects, index): dose 25 g active ingredient per 10 ares, examined on the 21st day after treatment; for Eo (herbicidal effect index): barnyard grass, dose 25 gai/10a, 21st day after treatment, index per Table 44
How it was run: as §4

soybean (G1) = assay: Test Example 5: selectivity for a crop plant by soil treatment in upland field; design: scale not given here; details: dose 25 gai/10a, 21st day after treatment, index per Table 44
Procedure: as §1

barnyard grass (Ec) [7] = assay: Test Example 3: herbicidal effects by foliage treatment in upland field; design: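 0-5 growth inhibition grade; 5 = over 90%; 4 = 70-90%; 3 = 50-70%; 2 = 30-50%; 1 = 10-30%; 0 = under 10%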; details: dose 100 g active ingredient per 10 ares, examined on the 14th day after treatment
How it was run: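 Barnyard grass and green foxtail were grown in upland soil for 2 weeks in a greenhouse. A water-diluted wettable powder was sprayed over the foliage at 100 l per 10 ares, giving 100 g active ingredient per 10 ares. Herbicidal effect was scored on day 14 after treatment.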
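For Herbicidal effect index, Eo in this document: 0-5 growth inhibition grade; 5 = over 90%; 4 = 70-90%; 3 = 50-70%; 2 = 30-50%; 1 = 10-30%; 0 = under 10%.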

Structure (SMILES) | Ec (herbicidal effect index) (barnyard grass (Ec) [1]) | Ze (herbicidal effect index on crop) (corn (Ze)) | Tr (herbicidal effect index on crop) (wheat (Tr)) | herbicidal effects, Ec (barnyard grass) (barnyard grass (Ec) [2]) | Herbicidal effect index, Mo (monochoria (Mo) [3]) | Herbicidal effect index, Eo (barnyard grass (Eo) [4]) | herbicidal effects, Se (green foxtail) (green foxtail (Se)) | Mo (herbicidal effects, index) (monochoria (Mo) [5]) | Or (effect on crop plant rice, index) (rice (Or)) | Eo (herbicidal effects, index) (barnyard grass (Eo) [6]) | Gl (herbicidal effect index on crop) (soybean (G1)) | Mo (herbicidal effect index) (monochoria (Mo) [5]) | Or (herbicidal effect index on crop) (rice (Or)) | Eo (herbicidal effect index) (barnyard grass (Eo) [6]) | herbicidal effects, Mo (monochoria) (monochoria (Mo) [3]) | herbicidal effects, Eo (barnyard grass) (barnyard grass (Eo) [4]) | Ec (herbicidal effects, index) (barnyard grass (Ec) [7])
CC(C(=O)N(C)C(c1cncnc1C(F)(F)F)C(C)C)c1ccc(Cl)cc1 (mixture of isomers) [Compound 1-71] | 5 | 0 | 3 | 5 | 5 | 5 | 5 |  |  |  |  |  |  |  |  |  | 
CC(C)C(c1cncnc1C(F)(F)Cl)N(C)C(=O)Cc1ccccc1 (racemic) [Compound 1-15] | 5 | 1 | 1 | 5 | 5 | 5 | 5 |  |  |  |  |  |  |  |  |  | 
Cc1ccc(CC(=O)N(C)C(c2cncnc2C(F)(F)F)C(C)C)cc1 (racemic) [Compound 1-23] | 5 | 1 | 2 | 5 | 5 | 5 | 5 | 5 | 1 | 5 |  |  |  |  |  |  | 
CC(C)C(c1cncnc1C(F)(F)F)N(C)C(=O)COc1ccccc1 (racemic) [Compound 1-64] | 4 | 0 | 3 | 5 | 5 | 5 | 5 |  |  |  | 2 |  |  |  |  |  | 
CC(C)C(c1cncnc1C(F)(F)F)N(C)C(=O)COc1ccc(Cl)cc1 (racemic) [Compound 1-65] | 5 | 0 | 0 | 5 | 5 | 5 | 5 |  |  |  | 0 |  |  |  |  |  | 
CC(C)c1ccc(CC(=O)N(C)C(c2cncnc2C(F)(F)F)C(C)C)cc1 (racemic) [Compound 1-68] | 4 | 2 | 2 | 5 | 5 | 5 | 5 |  |  |  | 0 |  |  |  |  |  | 
CC(C)C(c1cncnc1C(F)(F)F)N(C)C(=O)Cc1cccc(Br)c1 (racemic) [Compound 1-70] | 5 | 1 | 4 | 5 | 5 | 5 | 5 |  |  |  | 1 |  |  |  |  |  | 
CC(C)C(c1cncnc1C(F)(F)F)N(C)C(=O)Cc1ccc(C#N)cc1 (racemic) [Compound 1-75] | 4 | 2 | 3 | 5 | 5 | 5 | 5 |  |  |  | 0 |  |  |  |  |  | 
CC(C)C(c1cncnc1C(F)(F)F)N(C)C(=O)CCc1ccccc1 (racemic) [Compound 1-77] | 5 | 2 | 3 | 5 |  |  | 5 |  |  |  | 1 |  |  |  |  |  | 
CC(C)C(c1cncnc1C(F)(F)F)N(C(=O)Cc1ccccc1)C1CC1 (racemic) [Compound 1-80] | 5 | 1 | 5 | 5 | 5 | 5 | 5 |  |  |  | 0 |  |  |  |  |  | 
CC#Cc1ccc(CC(=O)N(C)C(c2cncnc2C(F)(F)F)C(C)C)cc1 (racemic) [Compound 1-84] | 4 | 0 | 1 |  | 5 | 5 |  | 5 | 0 | 5 | 0 |  |  |  |  |  | 
CC(C)C(c1cncnc1C(F)(F)F)N(C)C(=S)Cc1ccc(Cl)cc1 (racemic) [Compound 1-144] |  |  |  | 5 |  |  | 5 |  |  |  |  | 5 | 1 | 5 | 5 | 5 | 4
CSc1ncncc1C(C(C)C)N(C)C(=O)Cc1ccc(F)cc1 (racemic) [Compound 1-152] |  |  |  | 5 |  |  | 5 |  |  |  |  | 5 | 1 | 5 | 5 | 5 | 4
CSc1ncncc1C(C(C)C)N(C)C(=O)Cc1ccc(C)cc1 (racemic) [Compound 1-153] |  |  |  | 5 |  |  | 5 |  |  |  |  | 5 | 1 | 5 | 5 | 5 | 4
C#CCN(C(=O)Cc1ccc(F)cc1)C(c1cncnc1C(F)(F)F)C(C)C (racemic) [Compound 1-172] |  |  |  | 5 |  |  | 5 |  |  |  |  | 5 | 1 | 5 | 5 | 5 | 5
